Data taken from US20080255158A1, “Fungicidal Mixtures” (BASF Aktiengesellschaft, priority 2004, published 2008).

Test system: Cochliobolus miyabeanus
Assay: Activity against brown spot of rice caused by Cochliobolus miyabeanus, protective application
Type: in vivo
Details: individual active compound, 16 ppm in the spray liquor, rice leaves, 6 days after inoculation
Experimental: The active compounds, separately or jointly, were prepared as a stock solution comprising 0.25% by weight of active compound in acetone or DMSO. 1% by weight of the emulsifier Uniperol® EL (wetting agent having emulsifying and dispersing action based on ethoxylated alkylphenols) was added to this solution, and the mixture was appropriately diluted with water to the desired concentration.
Use example—Activity against brown spot of rice caused by Cochliobolus miyabeanus, protective application
Leaves of rice seedlings of the cultivar “Tai-Nong 67” which had been grown in pots were sprayed to runoff point with an aqueous suspension having the concentration of active compound stated below. The next day, the plants were inoculated with an aqueous spore suspension of Cochliobolus miyabeanus. The test plants were then placed in climatized chambers at 22-24° C. and 95-99% relative atmospheric humidity for 6 days. The extent of the development of infection on the leaves was then determined visually.
Evaluation is carried out by determining the infected leaf areas in percent. These percentages were converted into efficacies.
The efficacy (E) is calculated as follows using Abbot's formula: […]
The expected efficacies of the mixtures of active compounds are determined using Colby's formula [R. S. Colby, Weeds, 15, 20-22 (1967)] and are compared with the observed efficacies. […]

## CC1CCN(c2c(-c3c(F)cc(F)cc3F)c(Cl)nc3ncnn23)CC1 [compound I, 5-chloro-7-(4-methylpiperidin-1-yl)-6-(2,4,6-trifluorophenyl)[1,2,4]tri-azolo[1,5-a]pyrimidine]
  Efficacy in % of the untreated control: 54%
